According to US20260166159A1, “KRAS G12D DEGRADATION AGENT, AND PREPARATION METHOD AND USE THEREFOR” (LEADINGTAC PHARMACEUTICAL (SHAOXING) CO., LTD., priority 2022, published 2026):

Tests used:
Format in all cases: cell-based
[1] = tested on: KRAS G12D mutant human pancreatic cancer cell HPAC; test: 3D cell proliferation inhibition assay, HPAC; conditions: 168 h, 7 days, CTG
Procedure, shortened: (§1)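 For this 7-day anchorage-independent assay, 5×10^2 cells per well were exposed to 10000–0.026 nM test compound with 0.2% DMSO at 37 °C. ATP-based luminescence (CTG) gave viability, and percent inhibition versus DMSO controls was curve-fitted to obtain IC50.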

KRAS-G12D [2] = biological target: T1, KRAS-G12D (Homo sapiens, UniProt P01116, G12D); test: KRAS-G12D degradation assay (Western Blot), AsPc-1 cells; conditions: for DC50: 24 h; for Dmax: ASPC1, 24 h
T1 construct: endogenous in cells; host or cells: A-427 (ATCC), AGS, AsPc-1, Panc 04.03
T1 sequence (P01116 1-188 isoform P01116-2 G12D): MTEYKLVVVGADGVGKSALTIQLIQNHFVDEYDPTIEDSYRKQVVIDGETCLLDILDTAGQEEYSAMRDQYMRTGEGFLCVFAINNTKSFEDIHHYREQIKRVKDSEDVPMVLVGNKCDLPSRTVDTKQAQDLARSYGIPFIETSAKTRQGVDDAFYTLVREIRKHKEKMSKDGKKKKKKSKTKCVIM
Procedure, shortened: (§2)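 Western blotting of lysates (5 μg protein) quantified KRAS against a β-actin reference after 24 h exposure to compound at final 0.03–3000 nM in 0.25% DMSO. Cells were A-427, AGS, AsPc-1 or Panc 04.03, all KRAS G12D, at 5×10^5/well. Degradation versus control yielded DC50 and Dmax.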

KRAS-G12D [3] = biological target: T1, KRAS-G12D; test: KRAS-G12D degradation assay (Western Blot), A-427 cells; conditions: A427 cells, 24 h; for Dmax: A-427
Procedure, shortened: as §2

KRAS-G12D [4] = biological target: T1, KRAS-G12D; test: KRAS-G12D degradation assay (Western Blot), Panc 04.03 cells; conditions: 24 h
Procedure, shortened: as §2

[5] = tested on: KRAS G12D mutant human pancreatic cancer cell Panc 04.03; test: 3D cell proliferation inhibition assay, Panc 04.03; conditions: 168 h, Panc 04.03, 7 days, CTG
Procedure, shortened: as §1

KRAS-G12D [6] = biological target: T1, KRAS-G12D; test: KRAS-G12D degradation assay (Western Blot), AGS cells; conditions: 24 h
Procedure, shortened: as §2

Row | Compound | IC50 [1] [nM] | DC50 (KRAS-G12D [2]) [nM] | Dmax (KRAS-G12D [2]) [%] | DC50 (KRAS-G12D [3]; class symbols) [nM] | Dmax (KRAS-G12D [3]; class symbols) [%] | DC50 (KRAS-G12D [4]) [nM] | Dmax (KRAS-G12D [4]) [%] | IC50 ([5]; class symbols) [nM] | DC50 (KRAS-G12D [6]) [nM] | Dmax (KRAS-G12D [6]) [%] | DC50 (KRAS-G12D [3]; numeric values) [nM] | Dmax (KRAS-G12D [3]; numeric values) [%] | IC50 ([5]; numeric values) [nM]
1 | C#Cc1cccc2cc(O)cc(-c3ncc4c(N5CC6CCC(C5)N6)nc(OCC5(CN6CCN(CC7CCC8(CC7)CCN(C(=O)c7ccc(Cl)c(N9CCC(=O)NC9=O)c7)CC8)CC6)CC5)nc4c3F)c12 [Example 57, 1-(5-(9-((4-((1-(((4-(3,8-diazabicyclo[3.2.1]octan-3-yl)-7-(8-ethynyl-3-hydroxynaphthalen-1-yl)-8-fluoropyrido[4,3-d]pyrimidin-2-yl)oxy)methyl)cyclopropyl)methyl)piperazin-1-yl)methyl)-3-azaspiro [5.5]undecane-3-carbonyl)-2-chlorophenyl)dihydropyrimidine-2,4(1H,3H)-dione] | 9.88 | 15 | 99.5 | ≤ 50 | 80 to 100 | 8.95 | 97.3 | ≤ 50 | 0.69 | 94.2 | – | – | –
2 | C#Cc1c(F)ccc2cc(O)cc(-c3ncc4c(N5CC6CCC(C5)N6)nc(OCC(C)CN5CCN(CC6CCC7(CC6)CCN(C(=O)c6ccc(OC)c(N8CCC(=O)NC8=O)c6)CC7)CC5)nc4c3F)c12 (stereo not drawn) [Example 84, 1-(5-(9-((4-(3-((4-(3,8-diazabicyclo[3.2.1]octan-3-yl)-7-(8-ethynyl-7-fluoro-3-hydroxynaphthalen-1-yl)-8-fluoropyrido[4,3-d]pyrimidin-2-yl)oxy)-2-methylpropyl)piperazin-1-yl)methyl)-3-azaspiro[5.5]undecane-3-carbonyl)-2-methoxyphenyl)dihydropyrimidine-2,4(1H,3H)-dione] | 1.3 | 0.71 | 99.6 | – | – | 1.99 | 98.6 | – | 3.82 | 92.2 | 4.67 | 86.3 | 17
3 | CCc1c(F)ccc2cc(O)cc(-c3ncc4c(N5CC6CCC(C5)N6)nc(OCC5(CN6CCN(CC7CCC8(CC7)CCN(C(=O)c7ccc(OC)c(N9CCC(=O)NC9=O)c7)CC8)CC6)CC5)nc4c3F)c12 [Example 15, 1-(5-(9-((4-((1-(((4-(3,8-diazabicyclo[3.2.1]octan-3-yl)-7-(8-ethyl-7-fluoro-3-hydroxynaphthalen-1-yl)-8-fluoropyrido[4,3-d]pyrimidin-2-yl)oxy)methyl)cyclopropyl)methyl)piperazin-1-yl)methyl)-3-azaspiro[5.5]undecane-3-carbonyl)-2-methoxyphenyl)dihydropyrimidine-2,4(1H,3H)-dione] | 4.06 | 13 | 99.3 | ≤ 50 | 80 to 100 | 16.6 | 98.9 | ≤ 50 | 2.17 | 99.6 | – | – | –
